Test results as given in patent US20150105252A1, “SUBSTITUTED PYRAZOLES AS HERBICIDES” (E I DU PONT DE NEMOURS AND COMPANY, priority 2013, published 2015).

How the values were obtained:
barnyardgrass [1] = test: Test A preemergence; format: in vivo, Echinochloa crus-galli; conditions: preemergence
Method in brief: (§1)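 Scoring was visual, on a scale where 100 means complete control and 0 means no effect, comparing treated with untreated plants around 10 days post-application. Compounds in surfactant-containing non-phytotoxic solvent were sprayed onto soil preemergence or onto one- to two-leaf seedlings (2–10 cm) postemergence.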

crabgrass, large [2] = test: Test A preemergence; format: in vivo, Digitaria sanguinalis; conditions: preemergence; for Crabgrass, Large plant response rating (0 to 100 scale): 125 g ai/ha, visual injury approx. 10 days after treatment; for Crabgrass, Large plant response rating: 500 g ai/ha, visual injury after approx. 10 days, 0 to 100 scale (0 no effect, 100 complete control)
Method in brief: as §1

foxtail, giant [3] = test: Test A preemergence; format: in vivo, Setaria faberii; conditions: preemergence; for Foxtail, Giant plant response rating (0 to 100 scale): 125 g ai/ha, visual injury approx. 10 days after treatment; for Foxtail, Giant plant response rating: 500 g ai/ha, visual injury after approx. 10 days, 0 to 100 scale (0 no effect, 100 complete control)
Method in brief: as §1

morningglory [4] = test: Test A preemergence; format: in vivo, Ipomoea spp.; conditions: preemergence; for Morningglory plant response rating (0 to 100 scale): 125 g ai/ha, visual injury approx. 10 days after treatment; for Morningglory plant response rating: 500 g ai/ha, visual injury after approx. 10 days, 0 to 100 scale (0 no effect, 100 complete control)
Method in brief: as §1

pigweed [5] = test: Test A preemergence; format: in vivo, Amaranthus retroflexus; conditions: preemergence; for Pigweed plant response rating (0 to 100 scale): 125 g ai/ha, visual injury approx. 10 days after treatment; for Pigweed plant response rating: 500 g ai/ha, visual injury after approx. 10 days, 0 to 100 scale (0 no effect, 100 complete control)
Method in brief: as §1

velvetleaf [6] = test: Test A preemergence; format: in vivo, Abutilon theophrasti; conditions: preemergence; for Velvetleaf plant response rating (0 to 100 scale): 125 g ai/ha, visual injury approx. 10 days after treatment; for Velvetleaf plant response rating: 500 g ai/ha, visual injury after approx. 10 days, 0 to 100 scale (0 no effect, 100 complete control)
Method in brief: as §1

wheat [7] = test: Test A preemergence; format: in vivo, Triticum aestivum; conditions: preemergence; for Wheat plant response rating (0 to 100 scale): 125 g ai/ha, visual injury approx. 10 days after treatment; for Wheat plant response rating: 500 g ai/ha, visual injury after approx. 10 days, 0 to 100 scale (0 no effect, 100 complete control)
Method in brief: as §1

corn [8] = test: Test A preemergence; format: in vivo, Zea mays; conditions: preemergence; for Corn plant response rating (0 to 100 scale): 125 g ai/ha, visual injury approx. 10 days after treatment; for Corn plant response rating: 500 g ai/ha, visual injury after approx. 10 days, 0 to 100 scale (0 no effect, 100 complete control)
Method in brief: as §1

barnyardgrass [9] = test: Test A postemergence; format: in vivo, Echinochloa crus-galli
Method in brief: as §1

crabgrass, large [10] = test: Test A postemergence; format: in vivo, Digitaria sanguinalis
Method in brief: as §1

foxtail, giant [11] = test: Test A postemergence; format: in vivo, Setaria faberii
Method in brief: as §1

morningglory [12] = test: Test A postemergence; format: in vivo, Ipomoea spp.
Method in brief: as §1

pigweed [13] = test: Test A postemergence; format: in vivo, Amaranthus retroflexus
Method in brief: as §1

velvetleaf [14] = test: Test A postemergence; format: in vivo, Abutilon theophrasti
Method in brief: as §1

wheat [15] = test: Test A postemergence; format: in vivo, Triticum aestivum
Method in brief: as §1

corn [16] = test: Test A postemergence; format: in vivo, Zea mays
Method in brief: as §1

rice = test: Test B flood; format: in vivo, Oryza sativa; conditions: 250 g ai/ha, visual rating on 0 to 100 scale (0 no effect, 100 complete control), 13 to 15 days
Method in brief: (§2)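 At two leaves, seedlings received the test compound via the paddy water, pots having been flooded 3 cm over the soil surface and kept so. Greenhouse-held for 13 to 15 days, then judged by eye against controls on a scale running 0 (no effect) to 100 (complete control).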

sedge, umbrella = test: Test B flood; format: in vivo, Cyperus difformis; conditions: 250 g ai/ha, visual rating on 0 to 100 scale (0 no effect, 100 complete control), 13 to 15 days
Method in brief: as §2

ducksalad = test: Test B flood; format: in vivo, Heteranthera limosa; conditions: 250 g ai/ha, visual rating on 0 to 100 scale (0 no effect, 100 complete control), 13 to 15 days
Method in brief: as §2

barnyardgrass [17] = test: Test B flood; format: in vivo, Echinochloa crus-galli; conditions: 250 g ai/ha, visual rating on 0 to 100 scale (0 no effect, 100 complete control), 13 to 15 days
Method in brief: as §2

[18] = 125 g ai/ha, visual injury, 0 to 100 scale, approx. 10 days
[19] = 500 g ai/ha, visual injury after approx. 10 days, 0 to 100 scale (0 no effect, 100 complete control)
[20] = Postemergence, 500 g ai/ha, 0 to 100 scale (0 no effect, 100 complete control)
[21] = postemergence, 125 g ai/ha, about 10 days, visual rating on 0 to 100 scale (0 no effect, 100 complete control)

CCCc1cc(C(=O)Nc2ccc(F)cc2)nn1Cc1cc(C(F)(F)F)nn1C [Compound 150]
Barnyardgrass plant response rating (barnyardgrass [1]; [18]): 0 | Barnyardgrass plant response rating (barnyardgrass [1]; [19]): 0 | Crabgrass, Large plant response rating (0 to 100 scale) (crabgrass, large [2]): 0 | Crabgrass, Large plant response rating (crabgrass, large [2]): 20 | Foxtail, Giant plant response rating (0 to 100 scale) (foxtail, giant [3]): 0 | Foxtail, Giant plant response rating (foxtail, giant [3]): 20 | Morningglory plant response rating (0 to 100 scale) (morningglory [4]): 0 | Morningglory plant response rating (morningglory [4]): 0 | Pigweed plant response rating (0 to 100 scale) (pigweed [5]): 50 | Pigweed plant response rating (pigweed [5]): 100 | Velvetleaf plant response rating (0 to 100 scale) (velvetleaf [6]): 0 | Velvetleaf plant response rating (velvetleaf [6]): 0 | Wheat plant response rating (0 to 100 scale) (wheat [7]): 0 | Wheat plant response rating (wheat [7]): 0 | Corn plant response rating (0 to 100 scale) (corn [8]): 0 | Corn plant response rating (corn [8]): 0 | Barnyardgrass plant response rating (barnyardgrass [9]; [20]): 20 | Barnyardgrass plant response rating (barnyardgrass [9]; [21]): 0 | Crabgrass, Large plant response rating (crabgrass, large [10]; [20]): 10 | Crabgrass, Large plant response rating (crabgrass, large [10]; [21]): 10 | Foxtail, Giant plant response rating (foxtail, giant [11]; [20]): 10 | Foxtail, Giant plant response rating (foxtail, giant [11]; [21]): 0 | Morningglory plant response rating (morningglory [12]; [20]): 30 | Morningglory plant response rating (morningglory [12]; [21]): 30 | Pigweed plant response rating (pigweed [13]; [20]): 80 | Pigweed plant response rating (pigweed [13]; [21]): 30 | Velvetleaf plant response rating (velvetleaf [14]; [20]): 10 | Velvetleaf plant response rating (velvetleaf [14]; [21]): 10 | Wheat plant response rating (wheat [15]; [20]): 0 | Wheat plant response rating (wheat [15]; [21]): 0 | Corn plant response rating (corn [16]; [20]): 10 | Corn plant response rating (corn [16]; [21]): 0 | Plant response rating, Rice (rice): 15 | Plant response rating, Sedge, Umbrella (sedge, umbrella): 65 | Plant response rating, Ducksalad (ducksalad): 0 | Plant response rating, Barnyardgrass (barnyardgrass [17]): 0

CCCCc1cc(C(=O)NC2CC2)nn1Cc1ccnc(C(F)(F)F)c1 [Compound 151]
Barnyardgrass plant response rating (barnyardgrass [1]; [18]): 0 | Barnyardgrass plant response rating (barnyardgrass [1]; [19]): 60 | Crabgrass, Large plant response rating (0 to 100 scale) (crabgrass, large [2]): 80 | Crabgrass, Large plant response rating (crabgrass, large [2]): 100 | Foxtail, Giant plant response rating (0 to 100 scale) (foxtail, giant [3]): 50 | Foxtail, Giant plant response rating (foxtail, giant [3]): 100 | Morningglory plant response rating (0 to 100 scale) (morningglory [4]): 0 | Morningglory plant response rating (morningglory [4]): 30 | Pigweed plant response rating (0 to 100 scale) (pigweed [5]): 70 | Pigweed plant response rating (pigweed [5]): 100 | Velvetleaf plant response rating (0 to 100 scale) (velvetleaf [6]): 0 | Velvetleaf plant response rating (velvetleaf [6]): 70 | Wheat plant response rating (0 to 100 scale) (wheat [7]): 0 | Wheat plant response rating (wheat [7]): 10 | Corn plant response rating (0 to 100 scale) (corn [8]): 0 | Corn plant response rating (corn [8]): 0 | Barnyardgrass plant response rating (barnyardgrass [9]; [20]): 50 | Barnyardgrass plant response rating (barnyardgrass [9]; [21]): 10 | Crabgrass, Large plant response rating (crabgrass, large [10]; [20]): 80 | Crabgrass, Large plant response rating (crabgrass, large [10]; [21]): 30 | Foxtail, Giant plant response rating (foxtail, giant [11]; [20]): 70 | Foxtail, Giant plant response rating (foxtail, giant [11]; [21]): 20 | Morningglory plant response rating (morningglory [12]; [20]): 90 | Morningglory plant response rating (morningglory [12]; [21]): 50 | Pigweed plant response rating (pigweed [13]; [20]): 100 | Pigweed plant response rating (pigweed [13]; [21]): 70 | Velvetleaf plant response rating (velvetleaf [14]; [20]): 60 | Velvetleaf plant response rating (velvetleaf [14]; [21]): 30 | Wheat plant response rating (wheat [15]; [20]): 10 | Wheat plant response rating (wheat [15]; [21]): 0 | Corn plant response rating (corn [16]; [20]): 50 | Corn plant response rating (corn [16]; [21]): 10 | Plant response rating, Rice (rice): 0 | Plant response rating, Sedge, Umbrella (sedge, umbrella): 60 | Plant response rating, Ducksalad (ducksalad): 0 | Plant response rating, Barnyardgrass (barnyardgrass [17]): 0

O=C(NC1CC1)c1cc(Br)n(Cc2cccc(C(F)(F)F)c2)n1 [Compound 160]
Barnyardgrass plant response rating (barnyardgrass [1]; [18]): 0 | Barnyardgrass plant response rating (barnyardgrass [1]; [19]): 10 | Crabgrass, Large plant response rating (0 to 100 scale) (crabgrass, large [2]): 50 | Crabgrass, Large plant response rating (crabgrass, large [2]): 90 | Foxtail, Giant plant response rating (0 to 100 scale) (foxtail, giant [3]): 0 | Foxtail, Giant plant response rating (foxtail, giant [3]): 60 | Morningglory plant response rating (0 to 100 scale) (morningglory [4]): 0 | Morningglory plant response rating (morningglory [4]): 0 | Pigweed plant response rating (0 to 100 scale) (pigweed [5]): 50 | Pigweed plant response rating (pigweed [5]): 90 | Velvetleaf plant response rating (0 to 100 scale) (velvetleaf [6]): 0 | Velvetleaf plant response rating (velvetleaf [6]): 10 | Wheat plant response rating (0 to 100 scale) (wheat [7]): 0 | Wheat plant response rating (wheat [7]): 0 | Corn plant response rating (0 to 100 scale) (corn [8]): 0 | Corn plant response rating (corn [8]): 0 | Barnyardgrass plant response rating (barnyardgrass [9]; [20]): 30 | Barnyardgrass plant response rating (barnyardgrass [9]; [21]): 0 | Crabgrass, Large plant response rating (crabgrass, large [10]; [20]): 40 | Crabgrass, Large plant response rating (crabgrass, large [10]; [21]): 20 | Foxtail, Giant plant response rating (foxtail, giant [11]; [20]): 30 | Foxtail, Giant plant response rating (foxtail, giant [11]; [21]): 20 | Morningglory plant response rating (morningglory [12]; [20]): 20 | Morningglory plant response rating (morningglory [12]; [21]): 0 | Pigweed plant response rating (pigweed [13]; [20]): 80 | Pigweed plant response rating (pigweed [13]; [21]): 50 | Velvetleaf plant response rating (velvetleaf [14]; [20]): 60 | Velvetleaf plant response rating (velvetleaf [14]; [21]): 30 | Wheat plant response rating (wheat [15]; [20]): 0 | Wheat plant response rating (wheat [15]; [21]): 0 | Corn plant response rating (corn [16]; [20]): 20 | Corn plant response rating (corn [16]; [21]): 0 | Plant response rating, Rice (rice): 0 | Plant response rating, Sedge, Umbrella (sedge, umbrella): 0 | Plant response rating, Ducksalad (ducksalad): 0 | Plant response rating, Barnyardgrass (barnyardgrass [17]): 0

CCc1cc(C(=O)NC2CC2)nn1Cc1nc(C(F)(F)F)no1 [Compound 163]
Barnyardgrass plant response rating (barnyardgrass [1]; [18]): 10 | Barnyardgrass plant response rating (barnyardgrass [1]; [19]): 60 | Crabgrass, Large plant response rating (0 to 100 scale) (crabgrass, large [2]): 50 | Crabgrass, Large plant response rating (crabgrass, large [2]): 100 | Foxtail, Giant plant response rating (0 to 100 scale) (foxtail, giant [3]): 20 | Foxtail, Giant plant response rating (foxtail, giant [3]): 70 | Morningglory plant response rating (0 to 100 scale) (morningglory [4]): 0 | Morningglory plant response rating (morningglory [4]): 70 | Pigweed plant response rating (0 to 100 scale) (pigweed [5]): 30 | Pigweed plant response rating (pigweed [5]): 100 | Velvetleaf plant response rating (0 to 100 scale) (velvetleaf [6]): 10 | Velvetleaf plant response rating (velvetleaf [6]): 50 | Wheat plant response rating (0 to 100 scale) (wheat [7]): 0 | Wheat plant response rating (wheat [7]): 10 | Corn plant response rating (0 to 100 scale) (corn [8]): 0 | Corn plant response rating (corn [8]): 0 | Barnyardgrass plant response rating (barnyardgrass [9]; [20]): 40 | Barnyardgrass plant response rating (barnyardgrass [9]; [21]): 10 | Crabgrass, Large plant response rating (crabgrass, large [10]; [20]): 70 | Crabgrass, Large plant response rating (crabgrass, large [10]; [21]): 20 | Foxtail, Giant plant response rating (foxtail, giant [11]; [20]): 80 | Foxtail, Giant plant response rating (foxtail, giant [11]; [21]): 10 | Morningglory plant response rating (morningglory [12]; [20]): 90 | Morningglory plant response rating (morningglory [12]; [21]): 30 | Pigweed plant response rating (pigweed [13]; [20]): 90 | Pigweed plant response rating (pigweed [13]; [21]): 50 | Velvetleaf plant response rating (velvetleaf [14]; [20]): 80 | Velvetleaf plant response rating (velvetleaf [14]; [21]): 50 | Wheat plant response rating (wheat [15]; [20]): 0 | Wheat plant response rating (wheat [15]; [21]): 0 | Corn plant response rating (corn [16]; [20]): 30 | Corn plant response rating (corn [16]; [21]): 0 | Plant response rating, Rice (rice): 0 | Plant response rating, Sedge, Umbrella (sedge, umbrella): 0 | Plant response rating, Ducksalad (ducksalad): 0 | Plant response rating, Barnyardgrass (barnyardgrass [17]): 0
